# Laboratory results taken from US8058309B2, “Protein kinase modulators and therapeutic uses thereof” (Novotyr Therapeutics Ltd., priority 2006, dated 2011).
# What was measured:
# [1] = test system: YUMAC tumors; assay: Human melanoma YUMAC xenograft tumor growth; format: in vivo, nude mice; settings: IP, 20 mg/kg, 1/day
# Method: (§1) Human hormone-refractory prostate cancer PC3 cells (ATCC, 1.5×10^6 cells per mouse) were injected subcutaneously into the right leg of Nude:Hsd mice (purchased from Harlan). Ten days later, when palpable tumors had developed, mice were divided into 3 groups with similar average tumor size. […] The mice treated with compound 7 group were daily injected with compound 7 dissolved in the below described vehicle, and the vehicle-treated group (veh) was daily injected by the vehicle alone. Vehicle included 4.4% DMSO, 1.2% Ethanol and 50% PEG400 in DDW; Groups were composed of 3 mice per group. Dose administered IP was 50 mg/Kg (4 ml/Kg) once a day for one month. The length (l) and the width (w) of the tumors were measured every day and the volumes of the tumors were calculated as follows: v=1w^2/2. Graphs present average volumes of the tumors versus time in days. The procedure was followed for the other described in-vivo studies with the following modifications:
# The human YUMAC metastatic melanoma cells (2×10^6 cells per mouse), provided by Dr. Ruth Halaban (Yale University), were injected subcutaneously into the right leg of male Nude:Hsd mice (purchased from Harlan). Inhibitors were injected IP daily at a dose of 20 mg/kg dissolved in 8% EtOH, 2% Tween-80, 20% PEG-400 and 20% solutol in DDW at volume of 4 ml/kg.
# [2] = target: T1, IGF1R (Homo sapiens, UniProt P08069); assay: Inhibition of IGF1-induced signaling in intact MCF7 cells (western blot); format: cell-based; settings: for Inhibition of IGF1R autophosphorylation and IGF1-induced signaling (IRS1 pTyr, Akt/PKB, MAPK/ERK): 4 h exposure, IGF1 stimulation
# T1 construct: made in house
# Method: (§2) Tyrosine autophosphorylation of the β-subunit of IGF1R as well as downstream signaling induced by IGF1R were assayed in breast cancer MCF7 cells. Tyrosine autophosphorylation of the EGFR and the EGFR signaling was assayed in prostate cancer PC3 cells. Tyrosine autophosphorylation of the PDGFR and its signaling was assayed in fibroblasts overexpres sing PDGFR. Tyro sine autophosphorylation of the IR and its signaling was assayed in fibroblasts overexpressing IR. Cells were seeded in 6-well plates (MCF7-250,000 cells/well, PC3-150,000 cells/well, fibroblasts-140,000 cells/well) and 24 hours later medium was replaced by serum-free medium (DMEM supplemented with 100 units/ml penicillin and 100 μg/ml streptomycin). Following 20 hours of serum-starvation medium was replaced with medium containing various concentrations of the inhibitors in 0.1% DMSO for additional 4 hours. Cells were then stimulated for 5 min with 50 ng/ml IGF-1 (MCF7 cells), 20 ng/ml EGF (PC3 cells), 50 ng/ml PDGF (fibroblasts overexpressing PDGFR) or 100 nM insulin (fibroblasts overexpressing IR), washed twice with PBS and lysed by boiling sample buffer (10% glycerol, 50 mM Tris-HCl, pH 6.8, 3% SDS, and 5%, β-mercaptoethanol). Equal amounts of protein per lane were separated by 8% SDS-PAGE and transferred to a nitrocellulose membrane (Sartorius AG). Phosphorylated proteins were immunoblotted with anti-phospho-IGF1R (phosphor-IGF1R), anti-phosphotyrosine-IRS1 (phospho-IRS1), anti-phospho(T308)Akt (phospho-PKB), anti-phospho-Erk (phospho-ERK), anti-phosphotyrosine 4G10&PY20 (pY-EGFR or pY-PDGFR), anti-phospho-Ser^636/639-IRS1 (pS^636/639-IRS1) and anti-phospho-STAT3 (phospho-STAT3) antibodies. Detection was performed with horseradish peroxidase-conjugated secondary antibody using the ECL system. Blots were then stripped of antibodies, blocked with TBST with 5% low fat milk and re-probed with antibodies detecting both the phosphorylated and the non-phosphorylated corresponding proteins e.g. IGF1Rβ, IRS1, PKB, ERK, IRβ, PDGFR and Stat3.
# [3] = target: T2, EGFR (Homo sapiens, UniProt P00533); assay: EGFR activation and EGF-induced signaling in PC3 cells; format: cell-based; settings: EGF stimulation
# T2 construct: endogenous in cells; host or cells: PC3
# Method: as §2, with “Phosphorylated proteins were immunoblotted with anti-phospho-IGF1R (phosphor-IGF1R), anti-phosphotyrosine-IRS1 (phospho-IRS1), anti-phospho(T308)Akt (phospho-PKB), anti-phospho-Erk (phospho-ERK), anti-phosphotyrosine 4G10&PY20 (pY-EGFR or pY-PDGFR), anti-phospho-Ser^636/639-IRS1 (pS^636/639-IRS1) and anti-phospho-STAT3 (phospho-STAT3) antibodies. Detection was performed with horseradish peroxidase-conjugated secondary antibody using the ECL system. Blots were then stripped of antibodies, blocked with TBST with 5% low fat milk and re-probed with antibodies detecting both the phosphorylated and the non-phosphorylated corresponding proteins e.g. IGF1Rβ, IRS1, PKB, ERK, IRβ, PDGFR and Stat3.” left out
# [4] = test system: PDGFR; assay: PDGFR activation and signaling in fibroblasts overexpressing PDGFR; format: cell-based; settings: fibroblasts over-expressing PDGFR, PDGF stimulation
# Method: as §2, with “Phosphorylated proteins were immunoblotted with anti-phospho-IGF1R (phosphor-IGF1R), anti-phosphotyrosine-IRS1 (phospho-IRS1), anti-phospho(T308)Akt (phospho-PKB), anti-phospho-Erk (phospho-ERK), anti-phosphotyrosine 4G10&PY20 (pY-EGFR or pY-PDGFR), anti-phospho-Ser^636/639-IRS1 (pS^636/639-IRS1) and anti-phospho-STAT3 (phospho-STAT3) antibodies. Detection was performed with horseradish peroxidase-conjugated secondary antibody using the ECL system. Blots were then stripped of antibodies, blocked with TBST with 5% low fat milk and re-probed with antibodies detecting both the phosphorylated and the non-phosphorylated corresponding proteins e.g. IGF1Rβ, IRS1, PKB, ERK, IRβ, PDGFR and Stat3.” left out
# [5] = test system: MEK; assay: MEK activity in cells (ERK phosphorylation); format: cell-based
# Method: as §2, with “Phosphorylated proteins were immunoblotted with anti-phospho-IGF1R (phosphor-IGF1R), anti-phosphotyrosine-IRS1 (phospho-IRS1), anti-phospho(T308)Akt (phospho-PKB), anti-phospho-Erk (phospho-ERK), anti-phosphotyrosine 4G10&PY20 (pY-EGFR or pY-PDGFR), anti-phospho-Ser^636/639-IRS1 (pS^636/639-IRS1) and anti-phospho-STAT3 (phospho-STAT3) antibodies. Detection was performed with horseradish peroxidase-conjugated secondary antibody using the ECL system. Blots were then stripped of antibodies, blocked with TBST with 5% low fat milk and re-probed with antibodies detecting both the phosphorylated and the non-phosphorylated corresponding proteins e.g. IGF1Rβ, IRS1, PKB, ERK, IRβ, PDGFR and Stat3.” left out
# [6] = target: T3, PDK (Homo sapiens, UniProt O15530); assay: PDK activity in cells (PKB Thr308 phosphorylation); format: cell-based
# T3 construct: endogenous in cells
# Method: as §2, with “Phosphorylated proteins were immunoblotted with anti-phospho-IGF1R (phosphor-IGF1R), anti-phosphotyrosine-IRS1 (phospho-IRS1), anti-phospho(T308)Akt (phospho-PKB), anti-phospho-Erk (phospho-ERK), anti-phosphotyrosine 4G10&PY20 (pY-EGFR or pY-PDGFR), anti-phospho-Ser^636/639-IRS1 (pS^636/639-IRS1) and anti-phospho-STAT3 (phospho-STAT3) antibodies. Detection was performed with horseradish peroxidase-conjugated secondary antibody using the ECL system. Blots were then stripped of antibodies, blocked with TBST with 5% low fat milk and re-probed with antibodies detecting both the phosphorylated and the non-phosphorylated corresponding proteins e.g. IGF1Rβ, IRS1, PKB, ERK, IRβ, PDGFR and Stat3.” left out
# [7] = test system: primary keratinocytes; assay: In-vitro inhibition of keratinocyte growth; format: cell-based; settings: growth factor enriched medium
# Method: Primary keratinocytes were seeded in 96-well plates in growth factor enriched medium. After 48 hours medium was refreshed and compound 7 was added at the indicated concentrations (0 is 0.1% DMSO which was kept constant in all wells). Every 24 hours medium and compound 7 were refreshed, and 5 days following seeding cells were fixed with 0.5% gluteraldehide for 10 min, stained with Methylene-Blue. Access stain was washed away and the bound stain was extracted by 0.1N HCl. Absorbance at 620 nm wavelength was read in ELISA reader.
# [8] = test system: PC3 tumors; assay: Hormone-refractory prostate cancer PC3 xenograft tumor growth; format: in vivo, nude mice
# Method: as §1, with “modifications: […]” for “modifications:”
# [9] = Body weight of treated nude mice; format: in vivo; settings: IP, 1/day, 50 mg/kg, over 4 weeks
# Method: as §1, with “modifications: […]” for “modifications:”
# [10] = test system: Panc1 tumors; assay: Pancreatic cancer Panc1 xenograft tumor growth; format: in vivo, nude mice; settings: intratumoral, 1/day, 125 μg/day
# Method: as §1
# Human pancreatic cancer Pancl cells (2×10^6 cells per mouse) were injected subcutaneously into the right leg of male Nude:Hsd mice (purchased from Harlan). Compound 7 was injected intratumorally (IT) daily at doses of 125 μg/mouse in 0.06% DMSO and 2.16% PEG400 in saline.
# [11] = test system: B16 tumors; assay: Melanoma B16 tumor growth; format: in vivo, nude mice; settings: IP, 20 mg/kg, 1/day
# Method: as §1
# The mouse B16 melanoma cells (1.5×10^6 cells per mouse) were injected subcutaneously into the right leg of male Nude:Hsd mice (purchased from Harlan). Inhibitors were injected IP daily at a dose of 20 mg/kg dissolved in 4.4% % DMSO, 1.2% EtOH, 33% PEG-400 in DDW at volume of 4 ml/kg.
# T1 sequence (P08069 31-1367, species assumed): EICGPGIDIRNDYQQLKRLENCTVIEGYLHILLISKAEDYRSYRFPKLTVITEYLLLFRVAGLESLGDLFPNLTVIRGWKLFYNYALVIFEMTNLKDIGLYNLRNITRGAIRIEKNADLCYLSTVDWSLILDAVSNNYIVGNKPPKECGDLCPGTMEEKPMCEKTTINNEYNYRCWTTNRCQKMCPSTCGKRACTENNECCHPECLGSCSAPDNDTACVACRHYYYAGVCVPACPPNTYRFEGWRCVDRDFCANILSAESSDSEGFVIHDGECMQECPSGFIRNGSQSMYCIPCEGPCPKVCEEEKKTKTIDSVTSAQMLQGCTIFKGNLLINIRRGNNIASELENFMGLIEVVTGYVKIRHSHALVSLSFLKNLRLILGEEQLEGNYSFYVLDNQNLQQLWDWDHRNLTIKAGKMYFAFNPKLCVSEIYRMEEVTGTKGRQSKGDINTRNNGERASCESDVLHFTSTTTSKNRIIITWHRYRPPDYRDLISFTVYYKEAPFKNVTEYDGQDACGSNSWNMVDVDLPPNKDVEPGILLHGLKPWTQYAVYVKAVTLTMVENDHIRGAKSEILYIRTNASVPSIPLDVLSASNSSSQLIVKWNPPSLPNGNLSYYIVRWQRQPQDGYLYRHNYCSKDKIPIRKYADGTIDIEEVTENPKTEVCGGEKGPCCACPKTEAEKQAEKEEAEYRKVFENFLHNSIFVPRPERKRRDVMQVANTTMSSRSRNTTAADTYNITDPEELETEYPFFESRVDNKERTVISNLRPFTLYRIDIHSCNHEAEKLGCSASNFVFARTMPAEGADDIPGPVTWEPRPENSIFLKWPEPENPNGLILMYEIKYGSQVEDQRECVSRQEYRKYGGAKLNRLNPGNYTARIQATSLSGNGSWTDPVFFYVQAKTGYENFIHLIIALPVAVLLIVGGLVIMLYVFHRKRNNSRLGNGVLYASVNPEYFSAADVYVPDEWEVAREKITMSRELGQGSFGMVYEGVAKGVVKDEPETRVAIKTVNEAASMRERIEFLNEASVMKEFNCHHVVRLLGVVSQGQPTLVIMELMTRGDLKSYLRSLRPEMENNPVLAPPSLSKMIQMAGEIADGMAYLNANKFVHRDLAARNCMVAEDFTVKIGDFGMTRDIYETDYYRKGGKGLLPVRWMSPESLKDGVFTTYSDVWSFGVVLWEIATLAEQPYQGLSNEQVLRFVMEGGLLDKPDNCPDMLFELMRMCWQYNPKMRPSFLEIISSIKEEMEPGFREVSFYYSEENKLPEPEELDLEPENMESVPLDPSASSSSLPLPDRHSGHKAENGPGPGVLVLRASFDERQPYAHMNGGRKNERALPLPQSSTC
# T2 sequence (P00533 25-1210): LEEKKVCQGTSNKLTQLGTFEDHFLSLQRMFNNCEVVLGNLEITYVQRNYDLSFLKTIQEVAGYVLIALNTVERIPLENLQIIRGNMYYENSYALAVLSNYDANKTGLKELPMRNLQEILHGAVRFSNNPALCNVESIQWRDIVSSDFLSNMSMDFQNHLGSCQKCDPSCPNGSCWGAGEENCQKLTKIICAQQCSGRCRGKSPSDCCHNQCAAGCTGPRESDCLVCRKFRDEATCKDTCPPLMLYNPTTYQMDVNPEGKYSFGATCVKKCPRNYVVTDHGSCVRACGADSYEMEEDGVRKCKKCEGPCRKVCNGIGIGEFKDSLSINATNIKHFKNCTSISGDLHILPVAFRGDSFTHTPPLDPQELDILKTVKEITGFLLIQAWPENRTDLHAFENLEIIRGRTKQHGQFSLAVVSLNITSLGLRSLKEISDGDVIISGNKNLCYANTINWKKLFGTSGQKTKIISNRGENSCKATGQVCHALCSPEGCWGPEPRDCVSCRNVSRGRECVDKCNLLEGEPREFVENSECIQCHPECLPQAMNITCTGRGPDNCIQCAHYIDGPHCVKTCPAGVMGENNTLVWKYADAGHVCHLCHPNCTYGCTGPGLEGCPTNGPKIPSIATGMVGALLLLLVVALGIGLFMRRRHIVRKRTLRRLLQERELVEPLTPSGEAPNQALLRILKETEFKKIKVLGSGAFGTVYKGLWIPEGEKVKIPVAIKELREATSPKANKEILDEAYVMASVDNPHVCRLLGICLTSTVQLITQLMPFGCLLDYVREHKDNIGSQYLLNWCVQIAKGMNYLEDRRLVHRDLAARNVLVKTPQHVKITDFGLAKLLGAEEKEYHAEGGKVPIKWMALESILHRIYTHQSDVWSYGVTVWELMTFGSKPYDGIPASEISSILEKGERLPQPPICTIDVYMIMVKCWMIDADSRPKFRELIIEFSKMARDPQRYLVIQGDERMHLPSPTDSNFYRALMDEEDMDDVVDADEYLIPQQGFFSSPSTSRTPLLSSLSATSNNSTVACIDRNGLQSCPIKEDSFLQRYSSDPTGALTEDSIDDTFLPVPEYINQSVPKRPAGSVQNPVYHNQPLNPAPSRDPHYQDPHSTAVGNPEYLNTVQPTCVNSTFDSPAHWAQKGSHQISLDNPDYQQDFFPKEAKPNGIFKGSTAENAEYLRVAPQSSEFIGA
# T3 sequence (O15530 whole entry): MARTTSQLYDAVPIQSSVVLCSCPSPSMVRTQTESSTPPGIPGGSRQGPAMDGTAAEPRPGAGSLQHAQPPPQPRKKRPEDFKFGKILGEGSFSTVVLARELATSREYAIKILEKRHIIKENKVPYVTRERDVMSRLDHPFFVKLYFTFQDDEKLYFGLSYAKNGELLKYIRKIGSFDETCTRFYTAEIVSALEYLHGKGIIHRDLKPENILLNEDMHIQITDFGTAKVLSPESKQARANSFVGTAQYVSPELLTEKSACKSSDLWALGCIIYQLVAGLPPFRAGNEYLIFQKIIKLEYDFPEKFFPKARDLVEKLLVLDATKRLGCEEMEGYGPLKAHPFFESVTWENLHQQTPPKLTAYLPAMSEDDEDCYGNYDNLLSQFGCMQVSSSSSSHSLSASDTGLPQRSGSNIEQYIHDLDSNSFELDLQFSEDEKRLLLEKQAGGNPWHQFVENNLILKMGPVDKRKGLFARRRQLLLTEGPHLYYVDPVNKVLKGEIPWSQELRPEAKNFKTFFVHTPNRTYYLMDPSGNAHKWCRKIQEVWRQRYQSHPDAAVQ
SMILES,Growth inhibition of human melanoma YUMAC tumors [1],"Inhibition of IGF1R autophosphorylation and IGF1-induced signaling (IRS1 pTyr, Akt/PKB, MAPK/ERK) [2]",IC50 ([2]; read-out: IC50 in inhibition of the Akt/PKB pathway downstream IGF1R),Inhibition of EGFR and EGF-induced signaling in intact cells [3],Inhibition of PDGFR in intact cells [4],Inhibition of MEK (phosphorylation of ERK) [5],Inhibition of PDK (phosphorylation of PKB Thr308) [6],IC50 [7],"Growth inhibition of HRPC PC3 tumors ([8]; IP, 1/day, 50 mg/kg, one month, vs vehicle treated and untreated)",Efficacy on HRPC model by intratumoral administration ([8]; intratumoral administration),Effect on body weight of the mice [9],Growth inhibition of pancreatic cancer Panc1 tumors [10],Growth inhibition of melanoma B16 tumors [11]
N#C/C(=C\c1cc(O)c(O)c(I)c1)C(=S)NCc1cc(O)c(O)c(O)c1 [Compound 8],inhibition,,,,,,,,,,,,
N#C/C(=C\c1cc(O)c(O)c(Br)c1)C(=S)NCc1cc(O)c(O)c(O)c1 [Compound 7],,dramatically inhibited,1000 to 2000 nM,inhibits,inhibits,not inhibited,not inhibited,2300 nM,82%,efficient,no significant effect,50%,significant inhibitory effect
N#C/C(=C\c1cc(O)c(O)c(Br)c1)C(=S)NCc1cc(O)c(O)c(Br)c1 [Compound 6],,inhibited the autophosphorylation of IGF1R,,inhibited also EGFR,,,,,,,,,significant inhibitory effect
